Experimental data reported in PMC10515640, “Structure-Based Optimization of Covalent, Small-Molecule Stabilizers of the 14-3-3σ/ERα Protein–Protein Interaction from Nonselective Fragments” (Journal of the American Chemical Society, 2023).

Assays:
14-3-3σ/ERα [1] = biological target: T1, 14-3-3σ/ERα (Homo sapiens, UniProt P03372+P31947); experiment: Mass spectrometry dose response, compound binding to 14-3-3σ in the presence of ERα phosphopeptide; details: 100 nM compound, 100 nM 14-3-3σ, ERα-peptide 2 µM
T1 construct: The 14-3-3 σ isoform (full-length for mass spectrometry and fluorescence anisotropy assays, ΔC for crystallography); made in house; host or cells: E. coli Rosetta 2(DE3)pLysS, pPROEX HTb vector
Excerpt: (§1) Two orthogonal assays were developed for screening. For the primary assay, mass spectrometry (MS) was used to monitor the formation of the covalent bond between the compound and the native cysteine (Cys38 on 14-3-3σ) (Figure 1D). The assay was first performed in the absence of peptide to determine binding to 14-3-3σ only (apo screening, D1) and then in the presence of both 14-3-3σ and the peptide as an indication of how much the peptide stabilized compound binding (D2). […] As a secondary assay, fluorescence anisotropy (FA) was used. In this case, compounds were titrated to mixtures of 14-3-3σ and FAM-labeled peptides. […] Thus, the two assays are highly complementary; the MS assay reports on compound binding and the FA assay reports on peptide binding. […]
(§2) Mass spectrometry dose response assays were performed on a Waters Acquity UPLC/ Xevo G2-XS Q-Tof mass spectrometer. A Waters UPLC Protein BEH-C4 Column (300 Å, 1.7 μm, 2.1 mm x 50 mm) was used to desalt the samples prior to application on the mass spectrometer. For 19-point MS dose responses, 50 mM compound stocks in DMSO were serially diluted in 3-fold increment in a master plate, then 1000 nl of the compounds were transferred in the assay plates. Master mixes containing 100 nM full-length wild type 14-3-3σ in the absence or presence of […]
(§3) Assay buffer was TRIS (10 mM, pH 8.0) and final volume per well was 50 μl, with final top concentration of compounds dose response series at 1 mM. The reaction mixtures were incubated for 1h at rt before subjected to MS. Four measurements (1h, 8h, 16h, 24h) were performed for time-course experiments. The injection volume for each sample was 6 μl. 24 μl of sample were needed for the time-course experiments, so the total volume in the assay plate was adjusted to 50 μl, to account for the dead volume in the injections. Data collection and automated processing followed a custom workflow, as previously described.1 z Plots were created using GraphPad Prism with the log(agonist) vs. response (variable slope, four parameters) fitting model. […]

14-3-3σ = biological target: T2, 14-3-3σ (Homo sapiens, UniProt P31947); experiment: Mass spectrometry dose response, compound binding to 14-3-3σ in the absence of peptide (apo); details: 100 nM compound, 100 nM 14-3-3σ
T2 construct: The 14-3-3 σ isoform (full-length for mass spectrometry and fluorescence anisotropy assays, ΔC for crystallography); made in house; host or cells: E. coli Rosetta 2(DE3)pLysS, pPROEX HTb vector
T2 sequence (P31947 1-248): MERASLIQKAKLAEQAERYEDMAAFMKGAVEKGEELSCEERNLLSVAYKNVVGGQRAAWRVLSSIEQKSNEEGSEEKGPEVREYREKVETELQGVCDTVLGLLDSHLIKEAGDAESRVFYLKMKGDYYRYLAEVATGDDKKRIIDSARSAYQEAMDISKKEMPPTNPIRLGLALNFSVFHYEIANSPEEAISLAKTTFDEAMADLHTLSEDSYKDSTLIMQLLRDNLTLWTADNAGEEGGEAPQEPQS
Excerpt: as §1, §2, §3

14-3-3σ/ERα [2] = biological target: T1, 14-3-3σ/ERα; experiment: Fluorescence anisotropy compound titration, FAM-labeled ERα peptide; format: binding; details: 10 nM ERα-FAM labeled peptide, 1 µM 14-3-3σ, overnight incubation (24 h); read-out: EC50 value ERα (FA compound titration)
Excerpt: as §1
diluted in buffer (10 mM HEPES, pH 7.5, 150 mM NaCl, 0.1% Tween20, 1 mg/mL Bovine Serum Albumin (BSA; Sigma-Aldrich). Final DMSO in the assay was always 1%. Dilution series of 14-3-3 proteins or compounds were made in […]
Compound titrations were made by titrating the compound in a 2-fold dilution series (starting at 500 or 1000 µM) to a mix of fluorescein-labeled peptide (10 nM) and 14-3-3σ (concentration at approximately the EC20 to EC30 value of the protein-peptide complex; 1 µM for ERα and 5 µM for C-RAF). Using the ~EC25 value makes the assay sensitive for measuring an increase in PPI formation. Fluorescence anisotropy measurements were performed directly and after overnight incubation at room temperature. […]
Wells containing only FAM-peptide were used to set as G-factor at 35 mP. Data reported are at endpoint. EC50 and apparent Kd values were obtained from fitting the data with a four-parameter logistic model (4PL) in GraphPad Prism 7 for Windows. Data was obtained and averaged based on either three (compound titrations) or two (protein titrations) independent experiments.

14-3-3σ/C-RAF = biological target: T3, 14-3-3σ/C-RAF (Homo sapiens, UniProt P31947); experiment: Mass spectrometry dose response, compound binding to 14-3-3σ in the presence of C-RAF phosphopeptide; details: 100 nM compound, 100 nM 14-3-3σ, C-RAF peptide 18 µM
T3 construct: The 14-3-3 σ isoform (full-length for mass spectrometry and fluorescence anisotropy assays, ΔC for crystallography); made in house; host or cells: E. coli Rosetta 2(DE3)pLysS, pPROEX HTb vector
T3 sequence (P31947 1-248): T2 sequence (P31947 1-248)
Excerpt: as §1, §2, §3

Percentage (%) bound of compound to 14-3-3σ, ERα 1h (14-3-3σ/ERα [1]) [%]	Percentage (%) bound of compound to 14-3-3σ, ERα 8h (14-3-3σ/ERα [1]) [%]	Percentage (%) bound of compound to 14-3-3σ, ERα 16h (14-3-3σ/ERα [1]) [%]	Percentage (%) bound of compound to 14-3-3σ, ERα 24h (14-3-3σ/ERα [1]) [%]	Percentage (%) bound of compound to 14-3-3σ, APO 1h (14-3-3σ) [%]	Percentage (%) bound of compound to 14-3-3σ, APO 8h (14-3-3σ) [%]	Percentage (%) bound of compound to 14-3-3σ, APO 16h (14-3-3σ) [%]	Percentage (%) bound of compound to 14-3-3σ, APO 24h (14-3-3σ) [%]	EC50 (14-3-3σ/ERα [2]) [µM]	Percentage (%) bound of compound to 14-3-3σ, CRAF 1h (14-3-3σ/C-RAF) [%]	Percentage (%) bound of compound to 14-3-3σ, CRAF 8h (14-3-3σ/C-RAF) [%]	Percentage (%) bound of compound to 14-3-3σ, CRAF 24h (14-3-3σ/C-RAF; 24h) [%]	Percentage (%) bound of compound to 14-3-3σ, CRAF 24h (14-3-3σ/C-RAF; head prints 24h) [%]	SMILES
0.8	4.7	11.0	18.8	0	0	1.0	1.0	33 ± 1	4.7	8.0	32.4	11.6	C=CS(=O)(=O)NCC1CCN(C(=O)C(C)(C)Oc2ccc(Cl)cc2)CC1 [compound 17]
56.4	97.6	100	100	12.0	40.8	72.0	90.3	44 ± 2	98.8	99.9	100	99.9	CC(C)(Oc1ccc(Cl)cc1)C(=O)N1CCC(CCC(=O)CCl)CC1 [compound 37]
0	0	0	0	0	1.5	4.0	4.0	> 150	0	0	0	0	O=C(CCl)NCC1CCN(C(=O)C2(Nc3ccccc3)CCC2)CC1 [compound 98]
0	0	0	0	0	0	0	0	> 150	0	0	0	0	O=C(CCl)NCC1CCN(C(=O)C2(Nc3ccccc3)CCCCC2)CC1 [compound 121]
